pIC50: −log10 of the molar value.
Test system: 422866-222-R5-J1-PDC spheroids with HUVEC/MSC, viability
Experiment: Anticancer human tumor 422866-222-R5-J1-PDC patient-derived pancreatic adenocarcinoma cell line growth inhibition [GQUAD]
Conditions: for pIC50: curve of first compound; for viability, T/C: stronger effect = lower value; active = viability on the fitted dose curve at most 10% of control; inactive = the rest
Description: DNA G-quadruplex Stabilizer Agents in Combinations in Complex Spheroids
A high-throughput screen of multi-cell type tumor spheroids was designed to identify active combinations of DNA G-quadruplex stabilizer agents and targeted small molecules. Complex spheroids include a stromal component modeled by human endothelial cells (HUVEC) and fibroblasts modeled by human mesenchymal stem cells (MSCs). The concentration ranges selected for each drug and investigational agent were based upon clinically achievable concentrations if the clinical Cmax of the agent was known.
Compounds. The drugs and investigational agents: pidnarulex (CX-5461; NSC782164), APTO-253 (NSC789042), BRACO-19 (NSC847499), peposertib (NSC802822), ceralasertib (NSC780249), elimusertib (NSC800525), camonsertib (NSC841442), AZD-1390 (NSC803789), olaparib (NSC753686), talazoparib (NSC767125), ART-558 (NSC835418), sotorasib (NSC818433), MRTX-1133 (NSC836407), SN-38 (NSC673596), topotecan (NSC609699), etoposide (NSC141540), doxorubicin (NSC123127), gemcitabine (NSC613327), 5-fluorouracil (NSC19893), paclitaxel (NSC125973), vemurafenib (NSC761431), panobinostat (NSC761190), R-306465 (JNJ-16241199; NSC773264), adavosertib (NSC754352), TP-3654 (NSC805149), carboplatin (NSC241240), KSQ-4279 (NSC840948), and staurosporine (NSC755774) were obtained from the National Cancer Institute (NCI) Developmental Therapeutics Program Chemical Repository (34). The FDA-approved anticancer drug set is available from the NCI Developmental Therapeutics Program. […] The stock solutions were prepared in dimethyl sulfoxide (DMSO, Sigma-Aldrich, St. Louis, MO, cat. D2650) at 800-fold the tested concentration and stored at -70 degrees C prior to their use. All drugs and investigational agents were tested over a range starting from a high concentration at or near the clinical Cmax and decreasing in half-log increments. If the clinical Cmax for an agent had not been determined, the highest concentration tested was 10 microM.
2.3 Cell Culture. All cells were maintained in an incubator at 37 degrees C and 5% CO2 with 95% humidity. The PDC lines were cultured according to standard operating procedures established by the NCI PDMR. All PDCs were thawed and cultured in Matrigel-coated flasks prepared with a working solution of 1X Ham's F-12 nutrient mix, without supplementation (Invitrogen, cat. 11765054), 100 U/mL penicillin-streptomycin (Invitrogen, cat. 15140122), and 2.5% Matrigel (Corning Inc., cat. 354248) for the first three passages. The 857933-349-R-J2-PDC line was cultured in 6C/Colon 1B media, which includes advanced DMEM/F-12 (Thermo Fisher Scientific, cat. 12634028), 10 mM HEPES (Thermo Fisher Scientific, cat. 15630080), 1X GlutaMAX supplement (Thermo Fisher Scientific, cat. 35050061), 0.1 mg/mL primocin (InvivoGen, cat. ant-pm-2), 10% defined fetal bovine serum, heat inactivated (HyClone Laboratories Inc., cat. SH30070.03HI), 50% L-WRN conditioned media (ATCC, cat. CRL-3276), 1.25 mM N-Acetyl-L-cysteine (Sigma-Aldrich, cat. A9165), 10 mM nicotinamide (Sigma-Aldrich, cat. N0636), 1X B-27 supplement (Thermo Fisher Scientific, cat. 17504044), 1X N-2 supplement (Thermo Fisher Scientific, cat. 17502048), 10 microM Y-27632 dihydrochloride (Tocris Bioscience, cat. 1254), and 50 ng/mL human EGF recombinant protein (Thermo Fisher Scientific, cat. PHG0311). The 485176-168-R4-J1-PDC line was cultured in Panc media, which includes all 6C/Colon 1B media components plus 100 ng/mL human FGF-10 (Thermo Fisher Scientific, cat. 100-26), 500 nM SB-431542 (Selleckchem, cat. S1067), and gastrin (Tocris, cat. 3006).
[…]

[1] = second compound 0.0316 µM, first compound 0.0316 µM
[2] = second compound 0.0316 µM, first compound 0.1 µM
[3] = second compound 0.0316 µM, first compound 0.316 µM
[4] = second compound 0.0316 µM, first compound 1 µM
[5] = second compound 0.0316 µM, first compound 3.16 µM
[6] = second compound 0.0316 µM, first compound 10 µM
[7] = second compound 0.1 µM, first compound 0.0316 µM
[8] = second compound 0.1 µM, first compound 0.1 µM
[9] = second compound 0.1 µM, first compound 0.316 µM
[10] = second compound 0.1 µM, first compound 1 µM
[11] = second compound 0.1 µM, first compound 3.16 µM
[12] = second compound 0.1 µM, first compound 10 µM
[13] = second compound 0.316 µM, first compound 0.0316 µM
[14] = second compound 0.316 µM, first compound 0.1 µM
[15] = second compound 0.316 µM, first compound 0.316 µM
[16] = second compound 0.316 µM, first compound 1 µM
[17] = second compound 0.316 µM, first compound 3.16 µM
[18] = second compound 0.316 µM, first compound 10 µM
[19] = second compound 1 µM, first compound 0.0316 µM
[20] = second compound 1 µM, first compound 0.1 µM
[21] = second compound 1 µM, first compound 0.316 µM
[22] = second compound 1 µM, first compound 1 µM
[23] = second compound 1 µM, first compound 3.16 µM
[24] = second compound 1 µM, first compound 10 µM
[25] = second compound 3.16 µM, first compound 0.0316 µM
[26] = second compound 3.16 µM, first compound 0.1 µM
[27] = second compound 3.16 µM, first compound 0.316 µM
[28] = second compound 3.16 µM, first compound 1 µM
[29] = second compound 3.16 µM, first compound 3.16 µM
[30] = second compound 3.16 µM, first compound 10 µM
[31] = second compound 10 µM, first compound 0.0316 µM
[32] = second compound 10 µM, first compound 0.1 µM
[33] = second compound 10 µM, first compound 0.316 µM
[34] = second compound 10 µM, first compound 1 µM
[35] = second compound 10 µM, first compound 3.16 µM
[36] = second compound 10 µM, first compound 10 µM
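Note: spheroids exposed to compounds for seven days before reading.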
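Throughout, for viability, T/C: percent viability relative to DMSO vehicle control taken as 100%.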

CC(C)(O)C1CCC(Nc2ccc3ncc(-c4cccc(C(F)(F)F)c4)n3n2)CC1 (centres undefined) + Cc1[nH]c2ccc(F)cc2c1-c1nc2c3cccnc3c3ncccc3c2[nH]1
6.08: pIC50 (second compound 0.1 µM)
inactive: viability, T/C [1] 99.4% | viability, T/C [2] 79.8% | viability, T/C [3] 78.5% | viability, T/C [4] 50.7% | viability, T/C [5] 31.8% | viability, T/C [6] 26.9% | viability, T/C [7] 118% | viability, T/C [8] 103% | viability, T/C [9] 64.7% | viability, T/C [10] 50.9% | viability, T/C [11] 34.1% | viability, T/C [12] 29.8% | viability, T/C [13] 103% | viability, T/C [14] 99.2% | viability, T/C [15] 80.3% | viability, T/C [16] 51.1% | viability, T/C [17] 36.5% | viability, T/C [18] 29.5% | viability, T/C [19] 87.1% | viability, T/C [20] 88.4% | viability, T/C [21] 77.6% | viability, T/C [22] 55.4% | viability, T/C [23] 38.9% | viability, T/C [24] 27.1% | viability, T/C [25] 56% | viability, T/C [26] 63.5% | viability, T/C [27] 52.4% | viability, T/C [28] 39.3% | viability, T/C [29] 37.8% | viability, T/C [30] 29% | viability, T/C [31] 66.3% | viability, T/C [32] 68.3% | viability, T/C [33] 62% | viability, T/C [34] 35.1% | viability, T/C [35] 33.9% | viability, T/C [36] 26%
5.95: pIC50 (second compound 0.0316 µM) | pIC50 (second compound 0.316 µM)
5.83: pIC50 (second compound 1 µM)
6.38: pIC50 (second compound 3.16 µM)
6.27: pIC50 (second compound 10 µM)

C#Cc1c(F)ccc2cc(O)cc(-c3ncc4c(N5CC6CCC(C5)N6)nc(OCC56CCCN5CC(F)C6)nc4c3F)c12 (centres undefined) + Cc1cnc(CNC(=O)c2c(=O)c3ccc(N4CCCN(C)CC4)nc3n3c2sc2ccccc23)cn1
5.63: pIC50 (second compound 3.16 µM)
5.49: pIC50 (second compound 0.316 µM)
5.46: pIC50 (second compound 1 µM)
5.87: pIC50 (second compound 10 µM)
5.85: pIC50 (second compound 0.1 µM)
5.75: pIC50 (second compound 0.0316 µM)
inactive: viability, T/C [1] 95.9% | viability, T/C [2] 87% | viability, T/C [3] 72% | viability, T/C [4] 57.1% | viability, T/C [5] 43% | viability, T/C [6] 29.5% | viability, T/C [7] 98.4% | viability, T/C [8] 97.9% | viability, T/C [9] 69.7% | viability, T/C [10] 55.3% | viability, T/C [11] 42.5% | viability, T/C [12] 30.7% | viability, T/C [13] 97% | viability, T/C [14] 79.4% | viability, T/C [15] 75.4% | viability, T/C [16] 65.6% | viability, T/C [17] 49.8% | viability, T/C [18] 36.1% | viability, T/C [19] 95.8% | viability, T/C [20] 86.3% | viability, T/C [21] 73.6% | viability, T/C [22] 57.4% | viability, T/C [23] 55% | viability, T/C [24] 39.7% | viability, T/C [25] 77.4% | viability, T/C [26] 85.1% | viability, T/C [27] 78.8% | viability, T/C [28] 58.2% | viability, T/C [29] 49.7% | viability, T/C [30] 37% | viability, T/C [31] 70.5% | viability, T/C [32] 82% | viability, T/C [33] 73% | viability, T/C [34] 52.4% | viability, T/C [35] 43.3% | viability, T/C [36] 34.4%
